One assay has as its system immunoproteasome. Kind of assay: In vitro cleavage of HER-2/neu 19-mer by purified immunoproteasome. In kind it is biochemical. The conditions noted are these: from HER-2/neu 19-mer (364-382). As to the method:
(§1) The following was performed to determine if E75 is processed from HER-2/neu or HER-2/neu fragments by multi-subunit enzymes referred to as the proteasome and immunoproteasome, which are required for loading of polypeptide onto MHC class I molecules. […] (SEQ ID NO:3), was synthesized. […] The 19-mer was then cleaved using purified 20S proteasome and immunoproteasome.

A further assay deals with 20S proteasome. Kind of assay: In vitro cleavage of HER-2/neu 19-mer by purified 20S proteasome. The assay is classed as biochemical. Particulars: from HER-2/neu 19-mer (364-382). As for the experimental part: as §1
Assay [1] concerns 20S proteasome and immunoproteasome. Nature of the assay: Processing of longer HER-2/neu polypeptides (19-mer, 23-mer) treated with the proteasomes. In kind it is biochemical. As to the method:
as §1

The test system of assay [2] is HLA-A2 / HLA-ABC restricted T cell reactivity. Kind of assay: IFN-γ release of generated T cells in presence of neutralizing HLA-A2 or HLA-ABC antibodies. In kind it is cell-based, human. Particulars: versus control isotype matched antibody.
Another assay deals with breast cancer cell lines. Kind of assay: Cytotoxic T cell assay: lysis of breast cancer cells by polypeptide-generated CD8+ T cells. The assay is classed as cell-based, human. The conditions noted are these: compared to CD8+ T cells generated using p369-377. As for the experimental part: Another in vitro assay was performed to measure lysis of the breast cancer cells by the T cells.

For another assay, the system named is tumor cells. Nature of the assay: Tumor cell lysis by generated T cells in presence of neutralizing HLA-A2 or HLA-ABC antibodies. In kind it is cell-based, human.
The subject of assay [3] is breast cancer cell lines that express varying levels of HER-2/neu. In kind it is cell-based, human.
Assay [4] concerns target cells pulsed with polypeptide. Nature of the assay: IFN-γ ELIspot of polypeptide-generated CD8+ T cell lines against polypeptide-pulsed target cells. In kind it is cell-based, human.

With AFLPESFD (homo sapiens), the “Peptide generated by immunoproteasome” value in the assay with immunoproteasome is reported as “+”. For the same sequence, the “Peptide generated by proteasome” value in the assay with 20S proteasome is reported as “+”.

Consider FAGCKKIFGS (homo sapiens), for which the “Peptide generated by immunoproteasome” value with immunoproteasome is given as “+”. For the same sequence, the “Peptide generated by proteasome” value with 20S proteasome was “+”.

As to “FAGCKKIFGSL (homo sapiens) [HER-2/neu amino acids 364-374]”, the “Peptide generated by immunoproteasome” value in the assay on immunoproteasome is reported as “+”. Moreover, the “Peptide generated by proteasome” value with 20S proteasome was “+”.

“FAGCKKIFGSLAFLPESFD (homo sapiens) [19-mer polypeptide, substrate of the cleavage assay]”: in assay [1] (19-mer FAGCKKIFGSLAFLPESFD as substrate), the “Processing by purified 20S proteasome and immunoproteasome” value is “consistently found to be processed into several other shorter polypeptides”.

“FGSLAFLPES (homo sapiens) [HER-2/neu amino acids 371-380]”: the “Peptide generated by immunoproteasome” value in the assay on immunoproteasome is “+”. The “Peptide generated by proteasome” value with 20S proteasome is “+”.

For “FGSLAFLPESF (homo sapiens) [HER-2/neu amino acids 371-381]”, the “Peptide generated by immunoproteasome” value with immunoproteasome is listed as “+”. The “Peptide generated by proteasome” value in the assay on 20S proteasome is on record as “+”.

For the sequence “GSLAFLPESF (homo sapiens) [HER-2/neu amino acids 372-381]”, the “Peptide generated by immunoproteasome” value with immunoproteasome is recorded as “+”. Besides, the “Peptide generated by proteasome” value with 20S proteasome is given as “+”.

As to GSLAFLPESFD (homo sapiens), the “Peptide generated by immunoproteasome” value in the assay with immunoproteasome is on record as “+”. For the same sequence, the “Peptide generated by proteasome” value in the assay on 20S proteasome is recorded as “+”.

Take LAFLPESFD (homo sapiens): the “Peptide generated by immunoproteasome” value with immunoproteasome is “+”. In addition, the “Peptide generated by proteasome” value in the assay on 20S proteasome is “+”.

On to SLAFLPESF (homo sapiens), for which the “Peptide generated by immunoproteasome” value in the assay on immunoproteasome is listed as “+”. Also, the “Peptide generated by proteasome” value with 20S proteasome is “+”.

For the sequence SLAFLPESFD (homo sapiens), the “Peptide generated by immunoproteasome” value in the assay with immunoproteasome was “+”. Besides, the “Peptide generated by proteasome” value in the assay with 20S proteasome is on record as “+”. Further, the “Reactivity (IFN-γ release) of generated T cells with neutralizing HLA-A2 or HLA-ABC antibody” value in assay [2] was “markedly suppressed”. Also, in the assay on breast cancer cell lines, the “Lysis of breast cancer cell lines by CD8+ T cells generated with the polypeptide” value is “recognized and lysed all tested breast cancer cell lines at much higher levels”. For the same sequence, the “Lysis of tumor cells by generated T cells with neutralizing HLA-A2 or HLA-ABC antibody” value in the assay on tumor cells is recorded as “blocked lysis of tumor cells”. Also, the “Release from 23-mer treated with the proteasomes” value in assay [1] (23-mer containing p373-382 as substrate) is reported as “released from the 23-mer”. In addition, the “Recognition of breast cancer cells by CD8+ T cells generated with the polypeptide” value in assay [3] is on record as “able to recognize the breast cancer cells at much higher levels”. Also, in assay [4], the “Recognition of polypeptide-pulsed target cells by T cells generated with the polypeptide” value is “recognized target cells pulsed with either the p373-382 polypeptide or the p369-377 polypeptide”.

The values above are taken from patent US10117919B2, “Methods and materials for generating CD8+ T cells having the ability to recognize cancer cells expressing a HER2/neu polypeptide” (Mayo Foundation for Medical Education and Research, priority 2012, dated 2018).
